Experimental data from US12668568B2, “Adamantanyl-substituted benzamide compounds and their use as P2X7 receptor antagonists” (The University of Sydney, priority 2018, dated 2026).
Several values for one entry are separate records, joined by “and”; a condition that tells them apart may be missing. Equal values may be shown once. Read-outs that look alike come from different tables or passages of the source.

Legend:
[1] = In vivo pharmacokinetic study, intravenous bolus; details: rat, 1 mg/kg intravenous bolus; for AUC / AUC(0-inf) / clearance / Tmax / Vd / Cmax / half-life: male, Hans Wistar
Experimental: Male Hans Wistar rats were purchased from Charles River Laboratories UK. During the acclimatisation period the rats were group housed in cages of three and maintained under a 12 hour light/dark cycle with free access to food and water. Temperature and humidity were controlled according to UK Home Office regulations.
All compounds were formulated immediately prior to dosing in 10% DMSO, 20% Cremophor EL, 70% saline to provide 1 mg/ml solutions. Each rat received a weight corrected dose of formulated drug at 1 mg/kg administered by intravenous bolus injection via a lateral tail vein.
Terminal plasma and brain samples were collected from n=3 animals at specified time points (0.017, 0.083, 0.25, 0.5, 1, 2, 4 and 6 hours following dose administration).
Drug quantification was performed using liquid chromatography-tandem mass spectrometry using electrospray ionisation. Pharmacokinetic parameters were calculated using Phoenix WinNonlin software.

CYP2C9 = target: T1, CYP2C9 (Homo sapiens, UniProt P11712); experiment: Cytochrome profiling CYP2C9 (baculosomes); format: in vitro ADME; details: probe fluorogenic probe substrate (not named), 10 μM substrate
T1 construct: host or cells: insect cells infected with recombinant baculovirus (microsomes)
T1 sequence (P11712 whole entry): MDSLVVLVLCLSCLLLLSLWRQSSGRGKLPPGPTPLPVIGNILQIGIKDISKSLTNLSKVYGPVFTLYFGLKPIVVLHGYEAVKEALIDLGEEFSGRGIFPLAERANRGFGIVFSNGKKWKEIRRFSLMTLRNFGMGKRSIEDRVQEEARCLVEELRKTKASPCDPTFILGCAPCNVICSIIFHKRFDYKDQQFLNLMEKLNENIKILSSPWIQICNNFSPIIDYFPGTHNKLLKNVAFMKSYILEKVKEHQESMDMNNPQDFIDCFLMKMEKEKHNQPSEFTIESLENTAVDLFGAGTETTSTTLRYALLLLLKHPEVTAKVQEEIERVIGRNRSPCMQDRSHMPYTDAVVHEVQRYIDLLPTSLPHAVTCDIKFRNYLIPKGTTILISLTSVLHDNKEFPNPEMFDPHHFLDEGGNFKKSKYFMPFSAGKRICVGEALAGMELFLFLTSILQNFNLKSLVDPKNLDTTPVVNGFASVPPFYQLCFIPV
From the text: Cytochrome P450 (abbreviated CYP, P450 or CYP450) belong to very large and diverse superfamily of haemoproteins which accept both exogenous and endogenous compounds as substrates in enzymatic reactions and play a major role in drug metabolism. Although this class has more than 50 enzymes just 5 of them (CYP1A2, CYP2C9, CYP2C19, CYP2D6 and CYP3A4) are able to metabolise almost 90% of all drugs. Inhibition of these enzymes is one of the major reasons for drug-drug interactions. Consequently, detailed CYP inhibition profiles are a regulatory requirement for all new drugs. Inhibition potencies against the five most relevant CYP isoforms is performed using baculosomes; microsomes prepared from insect cells infected with recombinant baculovirus containing cDNA for a specific human P450 isozyme. The baculosomes are incubated with drug at a concentration of 1 μM in the presence of a probe substrate for 60 minutes at 37° C. The probe is normally metabolised by the baculosomes to produce a fluorescent metabolite. A substrate drug will compete for the isozyme and reduce the metabolism of the probe resulting in a decrease in the fluorescent signal. The percent inhibition due to the presence of the test compound is calculated using the following equation: [formula] • X=fluorescent intensity observed in the presence of test compound • A=fluorescent intensity observed in control • B=fluorescent intensity observed in the presence of the probe control

P-gp (human MDR1) = experiment: MDCK P-glycoprotein bidirectional permeability assay; format: in vitro ADME, canine; details: dog, 30 minute, 37° C.; for Papp A→B at 30 min, 10 μM: apical to basolateral; for Papp B→A at 30 min, 10 μM: basolateral to apical
Experimental: The transcellular permeability of test compounds and the influence of Pgp-mediated efflux on drug permeability was assessed using hMDR1-MDCK monolayers grown on filter supports. All compounds were dissolved in 100% DMSO to provide 10 mM stock solutions from which donor (dose) solutions were prepared in DMEM to give a final drug concentration of 10 μM. All dose solutions contained 10 μM propranolol as an internal standard. hMDR1-MDCK seeded filters were exposed to a fixed volume of the donor solution containing the compound of interest and its ability to traverse the monolayer and appear in the receiver compartment measured over a 30 minute period at 37° C. Bidirectional permeability measurements were derived by examining the transfer of compound in both the apical to basolateral compartment, and vice versa. Sample analysis was conducted using LC-MS/MS with the detection settings optimised for each test compound. Following analysis of the samples the apparent permeability coefficient (Papp, cm/sec) for the discovery compounds is determined using the following relationship: [formula] • VR=Volume of the receiver compartment • A=Surface area of the filter • CD=Drug concentration in the donor concentration • Δt=incubation time • ΔCR=the amount of drug detected in the receiver compartment The efflux ratio can be determined from these values by calculating the ratio of the Papp values derived in the B-A direction and A-B direction (i.e. Papp B-A/Papp A-B). […] P-gp) influencing transport.

hP2X7R = target: T2, hP2X7R (Homo sapiens, UniProt Q99572); experiment: Calcium influx assay in HEK-hP2X7 cells; format: cell-based; details: HEK cells expressing hP2X7R, BzATP 100 μM; mean ± standard deviation, n >3
T2 sequence (Q99572 1-595): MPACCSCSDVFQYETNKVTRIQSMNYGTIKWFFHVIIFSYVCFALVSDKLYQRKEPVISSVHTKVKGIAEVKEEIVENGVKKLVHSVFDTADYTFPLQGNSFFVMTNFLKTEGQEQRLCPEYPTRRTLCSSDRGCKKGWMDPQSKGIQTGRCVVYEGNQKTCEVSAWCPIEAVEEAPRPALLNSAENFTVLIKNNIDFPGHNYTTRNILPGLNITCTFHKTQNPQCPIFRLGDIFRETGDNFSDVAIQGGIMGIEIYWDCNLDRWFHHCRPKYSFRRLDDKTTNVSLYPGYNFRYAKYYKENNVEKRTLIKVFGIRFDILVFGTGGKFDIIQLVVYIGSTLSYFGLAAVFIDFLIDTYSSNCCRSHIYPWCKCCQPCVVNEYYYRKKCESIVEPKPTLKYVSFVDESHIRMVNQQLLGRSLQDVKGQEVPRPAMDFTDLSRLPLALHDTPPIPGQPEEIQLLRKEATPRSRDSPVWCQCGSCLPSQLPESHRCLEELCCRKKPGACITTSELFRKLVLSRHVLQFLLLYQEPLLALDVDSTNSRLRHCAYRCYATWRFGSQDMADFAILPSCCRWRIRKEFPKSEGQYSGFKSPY
Experimental: HEK293T cells transfected with cDNA for the human (HEK-hP2X7) or mouse P2X7 (HEK-mP2X7) receptor (a kind gift from Dr […] Stokes and Prof. Jim Wiley) were cultured in DMEM/F12 with 10% FBS and 500 μg/mL G418 (all from Invitrogen). […] HEK-hP2X7 or HEK-mP2X7 cells were harvested using trypsin (0.05%) with EDTA (0.03%). Cells were loaded with Fluo-4 AM (1 μM) in HBSS buffer at 37° C. for 30 min, inverting every 5 mins. […] Fluorescence was then monitored every 5 s for 5 min total monitoring. […] Data were normalized to the peak response seen with BzATP alone and the basal response seen due to injection of vehicle (see FIG. 3).

[2] = brain, read-out: T1/2 Brain (converted)
[3] = plasma, read-out: T1/2 Plasma (converted)

Row | Compound | AUC ([1]; brain, read-out: AUC6 Brain) [ng·h/mL] | AUC(0-inf) ([1]; brain, read-out: AUC∞ Brain) [ng·h/mL] | clearance ([1]; brain, read-out: Cl Brain) [mL/min/kg] | Tmax ([1]; brain, read-out: Tmax Brain) [min] | Vd ([1]; brain, read-out: Vd Brain) [L/kg] | Cmax ([1]; plasma) [ng/mL] | AUC ([1]; plasma, read-out: AUC6 Plasma) [ng·h/mL] | AUC(0-inf) ([1]; plasma, read-out: AUC∞ Plasma) [ng·h/mL] | clearance ([1]; plasma, read-out: Cl Plasma) [mL/min/kg] | Tmax ([1]; plasma, read-out: Tmax Plasma) [min] | Vd ([1]; plasma, read-out: Vd Plasma) [L/kg] | Cmax Brain ([1]; brain) [ng/mL] | T1/2 Brain ([1]; brain) [min] | T1/2 Plasma ([1]; plasma) [min] | inhibition at 60 min, 1 μM (CYP2C9) [%] | Papp A→B at 30 min, 10 μM (P-gp (human MDR1)) [×10⁻⁶ cm/s] | Papp B→A at 30 min, 10 μM (P-gp (human MDR1)) [×10⁻⁶ cm/s] | half-life [1, 2] [min] | half-life [1, 3] [min] | IC50 (hP2X7R)
1 | COc1ccc(Cl)c(C(=O)NCC23CC4(F)CC(F)(CC(F)(C4)C2)C3)c1 [Compound 1, 2-Chloro-N-((3,5,7-trifluoroadamantan-1-yl)methyl)-5-methoxybenzamide] | 380 | 386 | 43.2 | 1.2 | 2.1 | 1290 | 385 | 399 | 41.8 | 1.2 | 2.75 | 1464 | 75.6 | 103 | 9.26 | 30.3 | 44.2 | – | – | –
2 | COc1ccc(Cl)c(C(=O)NCC23CC4CC(F)(CC(F)(C4)C2)C3)c1 [Compound 2, 2-Chloro-N-((3,5-difluoroadamantan-1-yl)methyl)-5-methoxybenzamide] | 209 | 217 | 76.9 | 1.2 | 1.54 | 1720 | 196 | 199 | 83.5 | 1.2 | 1.41 | 1838 | – | – | -3 | 40 | 54.8 | 35.4 | 28.2 | 10 ± 4 nM
3 | COc1ccc(Cl)c(C(=O)NCC23CC4CC(CC(F)(C4)C2)C3)c1 [Compound 3, 2-Chloro-N-((3-fluoroadamantan-1-yl)methyl)-5-methoxybenzamide] | 286 | 291 | 57.3 | 1.2 | 0.92 | 1260 | 175 | 178 | 93.4 | 1.2 | 1.8 | 2422 | – | – | 32.3 | 28.1 | 34.3 | 25.8 | 25.8 | 17.4 ± 2.9 nM
4 | COc1ccc(Cl)c(C(=O)NCC23CC4CC(CC(C4)C2)C3)c1 [Compound 31, reference compound] | 221 | 246 | 67.8 | 1.2 | 0.77 | 1190 | 186 | 192 | 86.9 | 1.2 | 2.09 | 1696 | 9.6 | 28.2 | 75 | 40.9 | 23.6 | – | – | 26 nM and 25.7 nM
